One test relates to H3.3KD cells. Kind of test: Viability by flow cytometry (Live/Dead staining) after DNA damaging agents. Format: cell-based, human. The protocol: FIGS. 1A-1G show replacement histone variant H3.3 is rapidly recruited to DNA damage sites and cells deficient in H3.3 accumulate endogenous damage, while also being hypersensitive to DNA damaging agents. FIG. 1A: Histone variant H3.3 is rapidly recruited to sites of laser induced DNA damage in living cells. HCT116 human colon carcinoma cells were transiently co-transfected with expression constructs for H3.3-mEmerald and RFP-PCNA. […] Percent recruitment was calculated by dividing the number of cells recruiting H3.3 by the number of cells recruiting PCNA in the same cells. n=number of cells analyzed. […] The percentage knockdown for each clone shown at the bottom of the lanes was quantitated by measuring fluorescence intensity of the H3.3 band relative to the signal from the H4 band on a Li-Cor Odyssey imager. […] The presence of endogenous damage in H3.3KD and control LUC cells was determined by Western blotting of whole cell extracts using the indicated antibodies. […] 48 hours after MMS treatment, the viability of the cells was scored by flow cytometry using the violet fluorescent Live/Dead cell staining kit (Invitrogen) following the manufacturer's instructions. […] Significant differences between treatments are indicated by p values determined using a t-test. […]

Test [1] deals with Budding yeast strains carrying H3G34R mutant. The test can be described thus: Yeast viability by colony enumeration after genotoxic agents. It is filed as cell-based. As to conditions: 90 minutes treatment. The protocol:
FIGS. 8A-8G show deficiency of H3.3 in cells from multiple species results in accumulation of genomic instability and endogenous DNA damage, as well as hypersensitivity to DNA damaging agents. (FIG. 8A) Enhanced rate of micronuclei formation in H3.3KD cells. Micronuclei score was determined as described previously from 1000 LUC and H3.3KD cells. The difference between LUC and H3.3 was trending towards significance (p=0.12). (FIG. 8B) Increased incidence of lagging chromosomes during mitosis in H3.3KD cells. Quantitation of lagging chromosomes from 100 anaphases in LUC and H3.3KD cells is shown. (FIG. 8C) Flies deficient in H3.3 accumulate endogenous DNA damage. Western blot showing the levels of γH2A.v (the fly homolog of mammalian γH2A.X) in adult flies of the indicated genotypes: wild-type (WT; Oregon-R), heterozygous (het, with just one H3.3 allele) and rescue (res, which completely lacks H3.3, but its sterility is rescued by an extra copy of H3.2 driven by the H3.3B promoter). A sample from flies treated with 10 Gy IR is included as a positive control for γH2A.v signal. […] 100 third instar Drosophila larvae from WT and heterozygous (H3.3 Het) genotype carrying just one out of four alleles of H3.3 were exposed to either IR or ultra violet (UV) light and their development into adult flies was monitored for over two weeks. […] Viable flies remaining were scored daily for a week. […]

The structures appear in SMILES notation.

Regarding `NC(Cn1ccc(=O)c(O)c1)C(=O)O` (stereo not drawn) [Mimosine], in the test on H3.3KD cells (0.5 mM Mimo), the “sensitivity of H3.3 KD cells compared to control LUC cells” value is listed as “very sensitive”. Consider `COS(C)(=O)=O` [MMS, methyl methane sulfonate], for which the “sensitivity of H3.3 KD cells compared to control LUC cells” value in the test with H3.3KD cells (0.0175% MMS for 2 hours, viability 48 hours after) is recorded as “very sensitive”. Moreover, the “sensitivity of H3G34R yeast compared to wild-type” value in test [1] is recorded as “hypersensitive”.

(Values after patent US12564589B2, “Methods for treating cancer, reducing side effects of cancer treatment, and preventing the recurrence of cancer” (Florida State University Research Foundation, Inc., priority 2024, dated 2026).)
